Laboratory results from publication PMC12081684, “A three-dimensional high throughput assay identifies novel antibacterial molecules with activity against intracellular Shigella” (npj Antimicrobials and Resistance, 2025).
Several values for one entry are separate records, joined by “and”; a condition that tells them apart may be missing. Equal values may be shown once. Read-outs that look alike come from different tables or passages of the source.

What was measured:
[1] = system: intracellular S. flexneri SF_nanoluc in Caco-2 cells on Cytodex 3 beads; test: microbe, parasite or virus in culture
Protocol: S. flexneri SF_nanoluc was grown overnight on a 50mgL^-1 kanamycin LB plate at 37 °C. Bacteria were scraped from the plate surface and sub-cultured in warm supplemented EMEM medium for 2 h (at 37 °C and 200 rpm) and diluted to get OD around 0.3 at 625 nm. Induction was performed in 500 ml or 1000 ml siliconized spinner flasks under closed culture conditions. 200 mg autoclaved Cytodex 3 beads (GE Healthcare), rehydrated with cation-free PBS (Sigma), were washed with supplemented EMEM medium and inoculated with 1.7 million Caco-2 cells/ml in half of the desired culture volume of the medium. The spinner vessel was kept static for 4 h in a humidified atmosphere of 5% CO2 at 37 °C, allowing Caco-2 cells to bind to beads. The remaining medium was added into the vessel and stirred at 32.5 rpm. The medium was changed every 72 h, and the induction was used on day 17 to ensure Caco-2 cells were fully differentiated.
Cell concentration induction was measured by NucleoCounter® NC-100™ (ChemoMetec Version 2.4). Cellular invasion was initiated by adding the bacterial stock into cell induction with optimal MOI, and the vessel was stationary for an hour before stirring at 22.5 rpm for 5 h in a humid atmosphere of 5% CO2 at 37 °C. After incubation, culture media was discarded by centrifugation; and a gentamicin protection assay was performed, in which cell beads were washed twice with a warm medium and EMEM containing gentamicin (100ug ml^-1) was added to the chamber of the system. The cell culture was incubated for 1 h with stirring and then washed three times with a warm medium before 25 μl of the invasive mixture was dispensed into each well. Plates were incubated for two days in a humid atmosphere of 5% CO2 at 37 °C before proceeding to develop the luminescent signal by adding 10 μl mixture of nanoluciferase substrate (Nano-Glo® Luciferase Assay System, N1130, Promega) into each well. After standing at room temperature for 30 min, luminescent signals were quantified by the Envision Reader (PerkinElmer) in focus luminescent mode. For the bacterial tracking, we used the green fluorescent protein in S. flexneri ATCC 12022GFP to monitor the invasion.
The HTS assay was performed in 384-well black clear-bottom plates (Greiner). Screening compounds were prepared with an appropriate DMSO concentration (0.5% in cell-based assay). Every assay plate contained 16 wells of DMSO as negative controls and 16 wells of moxifloxacin at a final concentration of 20 μM as positive controls. These controls were used to monitor assay quality through determination of Z’ factor as well as normalizing the data on a per-plate basis.
To assess the quality of the dose-response assay, 11 commercially available antimicrobials were used to evaluate the reliability of the HTS assay. The percentage of coefficient of variation (CV%) was calculated by accessing the IC50 (μM) deviation of selected positive controls. Intra-assay reproducibility was determined by comparing the IC50 that were generated in the same run of the two replicates. Inter-assay reproducibility was assessed by comparing the IC50 generated by two replicates of each day over two days. Intra-assay %CV should be <10%, while inter-assay %CV should be <15%. To validate the HTS assay configuration, a set of 10 thousand compounds was assayed in 384-well plates at a final concentration of 10 μM. Assay were run in duplicate and confirmed if needed, a validation data was assessed to analyse the pros and cons of the whole procedure.
Following screening, all non-novel structures were removed, and the remaining compounds were subjected to a dose response (DR) assay, which was set as 3-fold serial dilution started at 100uM each compound.
The raw data of the plate reader was imported and analysed in ActivityBase and Spotfire version 10.3.1.18 (TIBCO).

HepG2 cells = test: In vitro cytotoxicity on HepG2 cells; format: cell-based; settings: for IC50: Homo sapiens
Text: Upon chemical review, the 15 hit compounds were reorganized based on structure similarity into 13 clusters. Two chemicals were considered as a series, and the remaining 11 clusters were singletons (Fig. 3). […] Four of the 15 structures carried an NO2 moiety, including two hits of Series 1, one hit of Series 2, and Singleton 7. Although the antibacterial activity of nitro-containing molecules is known to be broad, nitro groups have been extensively associated with mutagenicity and genotoxicity.

CAD solubility = format: physicochemical; settings: Table 1
[2] = Experimental Chromlog / ChromLogD pH7.4 and PFI; format: physicochemical; settings: for Chromlog pH7.4 (Expt): pH7.4, experimental
[3] = system: intracellular S. flexneri in Caco-2 cell monolayers; test: Monolayer (plate-based) Caco-2 intracellular Shigella assay; format: cell-based, Shigella flexneri
Text: The IC50 comparison between plate-based (monolayers) and bead-based assay was applied for control (Moxifloxacin) to validate and compare between two methods. The average IC50s from monolayer assays were lower than bead-based assays, but there was no significant difference (p value > 0.05, using Mann-Whitney test) between two methods (Supplementary Table 6).

[4] = Shigella flexneri, Caco-2, read-out: IC50 T1, 1st Batch, replicate T1
[5] = Shigella flexneri, Caco-2, read-out: IC50 T2, 1st Batch, replicate T2
[6] = Shigella flexneri, Caco-2, read-out: IC50 T3, 2nd Batch, replicate T3
[7] = Shigella flexneri, Caco-2, read-out: IC50 T4, 2nd Batch, replicate T4
[8] = HepG2, Table 1, read-out: HepG2 pIC50 (converted)
[9] = Shigella flexneri, Caco-2, read-out: Caco2 IC50 (μM), Table 1, 3-D Caco-2 beads, intracellular S. flexneri
[10] = Shigella flexneri, Caco-2, read-out: Caco2 pIC50, Table 1 (converted), 3-D Caco-2 beads, intracellular S. flexneri
[11] = HepG2, read-out: HepG2 pIC50, Table 1 (converted)
[12] = HepG2, Supplementary table 8, read-out: HepG2 pIC50 (converted)

Compound	IC50 [1, 4]	IC50 [1, 5]	IC50 [1, 6]	IC50 [1, 7]	IC50 [1, 9]	IC50 [1, 10]	CAD sol (CAD solubility)	Chromlog pH7.4 (Expt) [2]	Selectivity (log) Caco pIC50 vs Cytotox ([1]; Caco-2)	Selectivity (log) Caco pIC50 vs cytox ([1]; Caco-2)	also measured
CC[C@H]1OC(=O)[C@H](C)[C@@H](O[C@H]2C[C@@](C)(OC)[C@@H](O)[C@H](C)O2)[C@H](C)[C@@H](O[C@@H]2O[C@H](C)C[C@H](N(C)C)[C@H]2O)[C@](C)(O)C[C@@H](C)CN(C)[C@H](C)[C@@H](O)[C@]1(C)O [Azithromycin, reference compound]	0.569 µM	0.51 µM	0.624 µM	0.624 µM							
CO/N=C(\C(=O)N[C@@H]1C(=O)N2C(C(=O)O)=C(CSc3nc(=O)c(=O)[nH]n3C)CS[C@H]12)c1csc(N)n1 [Ceftriaxone, reference compound]	0.0151 µM	0.0151 µM	0.0196 µM	0.0196 µM							
CN1C(=O)[C@H](NC(=O)NCc2ccccc2)N=C(c2ccccc2)c2ccccc21 [Compound 5]					19.1 µM	19.1 µM					IC50 (HepG2 cells; [8]): > 100 µM; Selectivity (log) Caco pIC50 vs Cytotox ([1]; Supplementary table 8, vs HepG2): > 0.72 log; Selectivity (log) Caco pIC50 vs cytox ([1]; Table 1, Caco2 pIC50 vs HepG2 pIC50): >0.72 log
CCn1c(-c2nonc2N)nc2c(-c3cccc(Cl)c3)ncc(C(O)c3ccn(C)n3)c21 (stereo not drawn) [Compound 7]					3.24 µM	3.24 µM	10 µg/mL	4.75	> 1.49 log	>1.49 log	IC50 (HepG2 cells; [8]): > 100 µM
COc1ccc(C2Nc3nc4ccccc4n3C(C)=C2C(=O)Nc2ccccc2)cc1 (stereo not drawn) [Compound 8]					22.9 µM	22.9 µM	10 µg/mL	4.77	0.38 log	0.38 log	HepG2 cytotoxicity (in words) (HepG2 cells): exhibit HepG2 cytotoxicity; IC50 (HepG2 cells; [8]): 55 µM
N#Cc1cnn2c1[nH]c(=O)c1sc(-c3ccccc3)cc12 [Compound 9]					19.9 µM	20 µM	17 µg/mL	2.5	0.58 log	0.58 log	IC50 (HepG2 cells; [8]): 75.9 µM; IC50 ([1]; Shigella flexneri, Caco-2, read-out: Caco2 pIC50, printed in Fig. 3 (converted)): 2 µM
CC(=O)c1csc(-c2csc(C)n2)n1 [Compound 10]					8.51 µM	8.51 µM			1.07 log	1.07 log	IC50 (HepG2 cells; [11]): > 100 µM
NC(=O)c1ccccc1Oc1ccc(Cl)cc1[N+](=O)[O-] [Compound 11]									0.61 log		HepG2 cytotoxicity (in words) (HepG2 cells): exhibit HepG2 cytotoxicity; IC50 (HepG2 cells; [12]): 23.4 µM; IC50 ([1]; Shigella flexneri, Caco-2, read-out: Caco2 pIC50, Supplementary table 8 (converted)): 5.75 µM
CC(C)c1noc2ncc(C(=O)c3ccccc3O)cc12 [Compound 12]					1.59 µM	1.58 µM	44 µg/mL	6.05	1.80 log	1.80 log	IC50 (HepG2 cells; [12]): > 100 µM; IC50 (HepG2 cells; [11]): > 10 µM; PFI (Expt) ([2]; experimental): 9.05
COc1ccc2c(CC(=O)NC(c3ccc(Cl)cc3)C3CC3)coc2c1 (stereo not drawn) [Compound 13]					24.6 µM	24.5 µM	53 µg/mL	6.43	> 0.61 log	>0.61 log	IC50 (HepG2 cells; [12]): > 100 µM; IC50 (HepG2 cells; [11]): > 1 µM
Cc1nn(-c2ccccc2)c(C)c1NC(=O)CN1C(=O)NC(C)(c2ccco2)C1=O (stereo not drawn) [Compound 14]					24.6 µM	24.5 µM	>106 µg/mL	2.93	> 0.61 log	>0.61 log	IC50 (HepG2 cells; [12]): > 100 µM; IC50 (HepG2 cells; [11]): > 0.1 µM
CC(=O)c1cccc(NC(=O)Nc2ccc(S(=O)(=O)Nc3cc(C)on3)cc2)c1 [Compound 15]					17.4 µM	17.4 µM	>149 µg/mL	2.04	> 0.76 log	>0.61 log	IC50 (HepG2 cells; [12]): > 100 µM; IC50 (HepG2 cells; [11]): > 0.01 µM
C[C@@H](O)[C@H]1C(=O)N2C(C(=O)O)=C([C@H]3CCCO3)S[C@H]12 [Faropenem, reference compound]	1.3 µM	1.23 µM	1.43 µM	1.44 µM							
CNC(C)C1CCC(N)C(OC2C(N)CC(N)C(OC3OCC(C)(O)C(NC)C3O)C2O)O1 (stereo not drawn) [Gentamicin, reference compound]	1.52 µM	1.27 µM	1.17 µM	1.24 µM							
C[C@@H](O)[C@H]1C(=O)N2C(C(=O)O)=C(S[C@@H]3CN[C@H](C(=O)N(C)C)C3)[C@H](C)[C@H]12 [Meropenem, reference compound]	0.349 µM	0.365 µM	0.404 µM	0.399 µM							
COc1c(N2C[C@@H]3CCCN[C@@H]3C2)c(F)cc2c(=O)c(C(=O)O)cn(C3CC3)c12 [Moxifloxacin, reference compound]	0.0252 µM	0.0221 µM	0.0235 µM	0.0235 µM							IC50 ([3]; Shigella flexneri, Caco-2, Average of three, read-out: IC50 (µM) Monolayers, Average): 0.0232 µM; IC50 ([3]; Shigella flexneri, Caco-2, single runs, read-out: IC50 (µM) Monolayers): 0.0236 µM; IC50 ([3]; single runs, read-out: IC50 (µM) Monolayers): 0.0234 µM and 0.0228 µM; IC50 ([1]; Shigella flexneri, Caco-2, read-out: IC50 (µM) Beads, Average, Average of three, Supplementary table 6): 0.0305 µM; IC50 ([1]; Shigella flexneri, Caco-2, read-out: IC50 (µM) Beads, single runs, Supplementary table 6): 0.0361 µM; IC50 ([1]; read-out: IC50 (µM) Beads, single runs, Supplementary table 6): 0.0327 µM and 0.0226 µM
COc1ccc(-c2ccn(CC[C@](C)(C(=O)NO)S(C)(=O)=O)c(=O)c2)c(F)c1 [PF5081090, reference compound]											IC50 ([1]; read-out: IC50 T1, 1st Batch, replicate T1): 0.0957 µM; IC50 ([1]; read-out: IC50 T2, 1st Batch, replicate T2): 0.0919 µM; IC50 ([1]; read-out: IC50 T3, 2nd Batch, replicate T3): 0.0937 µM; IC50 ([1]; read-out: IC50 T4, 2nd Batch, replicate T4): 0.0938 µM
CN(C)[C@@H]1C(O)=C(C(N)=O)C(=O)[C@@]2(O)C(O)=C3C(=O)c4c(O)cccc4[C@@](C)(O)[C@H]3C[C@@H]12 [Tetracycline, reference compound]	1.61 µM	1.56 µM	1.19 µM	1.18 µM							
